According to ChEMBL document CHEMBL1806423, “Cytotoxic 1,2-dialkynylimidazole-based aza-enediynes: aza-Bergman rearrangement rates do not predict cytotoxicity” (J Med Chem, 2011):
Calls of active or inactive are those of the source. No cut-off for these calls is given here.

Key:
Nucleic Acid = experiment: Induction of DNA cleavage of supercoiled phiX174 plasmid DNA assessed as relaxed DNA at 100 uM after 16 hrs by gel electrophoresis; assay type: nucleic-acid assay; conditions: Enterobacteria phage phiX174
A549 = experiment: Cytotoxicity against human A549 cells after 72 hrs by alamar blue assay; assay type: functional, cell-based; conditions: A549, 72 h
Albumin = Albumin (Bos taurus, UniProt P02769); experiment: Induction of cleavage of bovine serum albumin at 500 uM after 16 hrs using Coomassie blue by SDS-PAGE; conditions: cattle
[1] = Thermal stability of the compound assessed as half life at 110 degC; assay type: physicochemical

Sequence of Albumin (P02769 whole entry): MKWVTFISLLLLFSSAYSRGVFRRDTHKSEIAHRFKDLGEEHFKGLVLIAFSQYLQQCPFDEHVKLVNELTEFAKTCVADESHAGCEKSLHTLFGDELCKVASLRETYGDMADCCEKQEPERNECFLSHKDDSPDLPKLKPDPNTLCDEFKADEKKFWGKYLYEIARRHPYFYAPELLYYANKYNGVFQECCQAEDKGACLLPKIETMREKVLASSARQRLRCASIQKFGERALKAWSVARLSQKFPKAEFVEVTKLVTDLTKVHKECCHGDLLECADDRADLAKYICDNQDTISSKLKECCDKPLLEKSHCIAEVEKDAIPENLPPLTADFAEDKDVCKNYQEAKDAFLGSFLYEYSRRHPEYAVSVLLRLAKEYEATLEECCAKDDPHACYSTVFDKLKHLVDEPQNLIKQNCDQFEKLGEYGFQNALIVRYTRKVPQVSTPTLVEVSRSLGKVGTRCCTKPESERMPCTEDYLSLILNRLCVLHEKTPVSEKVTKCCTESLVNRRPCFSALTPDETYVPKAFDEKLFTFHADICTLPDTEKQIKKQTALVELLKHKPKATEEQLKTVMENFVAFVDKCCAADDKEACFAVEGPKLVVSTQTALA

Row | SMILES | Activity (Nucleic Acid) | IC50 (A549) | Activity (Albumin) | half-life [1]
1 | C#Cn1ccnc1C#Cc1ccc(OC)cc1 | inactive | 500 nM | Not Active | 17 h
2 | C#Cn1ccnc1C#Cc1cc(C(F)(F)F)cc(C(F)(F)F)c1 |  | 2500 nM |  | 
3 | C#Cc1nc(-c2ccc(F)cc2)cn1C#C | inactive | 2600 nM | Not Active | 
4 | C#Cn1cc(-c2ccc(F)cc2)nc1C#CCCO |  | 2600 nM |  | 
5 | C#Cn1ccnc1C#Cc1ccc([N+](=O)[O-])cc1 | inactive | 120 nM | Not Active | 32 h
6 | C#Cn1cc(-c2ccccc2)nc1C#Cc1ccc(OC)cc1 |  | 2000 nM |  | 
7 | C#Cn1ccnc1C#Cc1ccc(C(F)(F)F)cc1 |  | 6000 nM |  | 
8 | COc1ccc(C#Cc2nccn2C)cc1 |  | > 15000 nM |  | 
9 | OCC#Cc1nccn1C#CCO |  | 1900 nM |  | 
10 | C#Cn1c(C#Cc2ccc(OC)cc2)nc2ccccc21 |  | 2900 nM |  | 
11 | C(#Cn1ccnc1CCc1ccccc1)c1ccccc1 |  | > 15000 nM |  | 
12 | C#Cn1cnc(-c2ccccc2)c1 |  | 1100 nM |  | 
13 | C#Cc1nc2ccccc2n1C#C |  | 2000 nM |  | 
14 | C#Cn1ccnc1C#Cc1ccc(C(C)=O)cc1 |  | 500 nM |  | 
15 | C#Cn1ccnc1C#CCOC |  | 1000 nM |  | 
16 | C#Cc1nc(-c2ccccc2)cn1C#C |  | 2500 nM |  | 
17 | C#Cn1ccnc1C#Cc1ccccc1 |  | 6000 nM |  | 
18 | C#Cn1ccnc1C#Cc1ccc(C(C)(C)C)cc1 |  | 2500 nM |  | 16 h
19 | COc1ccc(C#Cc2nccn2/C=C\Sc2ccccc2)cc1 |  | 10100 nM |  | 
20 | C(#Cn1ccnc1)c1ccccc1 |  | 9200 nM |  | 
21 | C#Cc1nccn1C#Cc1ccccc1 |  | 5000 nM |  | 
